Source: patent US12269800B2, “Delivery of therapeutic alkaloid compounds” (priority 2021, dated 2025)
Where two headings read alike, the source gives them in different places.

Tests used:
[1] = Plasma Stability Assay of Example A3, mouse plasma; details: % of prodrug compound remaining, 37° C.
[2] = Plasma Stability Assay of Example A3, human plasma; details: % of prodrug compound remaining, 37° C.
[3] = 5 µM
Method: (§1) 50 uL aliquots of positive controls and test compounds spiked into rat or human plasma (n=2) were added to a pre-warmed plate (37° C.) and shaken at 50 rpm. At each respective time point, the reaction was stopped by adding 500 μL of acetonitrile containing internal standards (100 nM aprozolam, 200 nM caffeine, 100 nM tolbutamide). All samples were vortexed for 10 minutes, followed by centrifugation at 3,220 g for 30 minutes to precipitate proteins. 100 μL of the supernatant is transferred to a new plate. The supernatant will be diluted with ultrapure water according to the LC-MS signal response and peak shape.

[4] = 5 µM; remark: listed apart in the source
Method: as §1

| SMILES | Mouse Plasma Prodrug (%) ([1]; 0.0 min) | Mouse Plasma Prodrug (%) ([1]; 15 min) | Mouse Plasma Prodrug (%) ([1]; 60 min) | Mouse Plasma Prodrug (%) ([1]; 120 min) | Mouse Plasma Prodrug (%) ([1]; 240 min) | Human Plasma Prodrug (%) ([2]; 0.0 min) | Mouse Plasma Prodrug (%) ([1]; 30 min) | Human Plasma Prodrug (%) ([2]; 60 min) | Human Plasma Prodrug (%) ([2]; 120 min) | Human Plasma Prodrug (%) ([2]; 240 min) | Human Plasma Prodrug (%) ([2]; 15 min) | Human Plasma Prodrug (%) ([2]; 30 min) | also measured |
| --- | --- | --- | --- | --- | --- | --- | --- | --- | --- | --- | --- | --- | --- |
| COc1ccc([C@@]23CCC(OC(=O)C(c4ccccc4)c4ccccc4)=C[C@@H]2N(C)CC3)cc1OC [Compound 306, [(3aS,7aS)-3a-(3,4-dimethoxyphenyl)-1-methyl-3,4,5,7a-tetrahydro-2H-indol-6-yl] 2,2-diphenylacetate] | 100.0 | 6.2 | 1.6 | 0.4 | 0.1 | 100.0 | – | – | – | – | – | – | – |
| COc1ccc([C@@]23CCC(OC(=O)c4cccc(N(C)C)c4)=C[C@@H]2N(C)CC3)cc1OC [Compound 307, [(3aS,7aS)-3a-(3,4-dimethoxyphenyl)-1-methyl-3,4,5,7a-tetrahydro-2H-indol-6-yl] 3-(dimethylamino)benzoate] | 100.0 | – | 0.1 | 0.0 | 0.0 | 100.0 | 3.8 | 83.0 | – | – | – | – | – |
| COc1ccc([C@@]23CCC(OC(=O)C(C)(C)C)=C[C@@H]2N(C)CC3)cc1OC [Compound 309, [(3aS,7aS)-3a-(3,4-dimethoxyphenyl)-1-methyl-3,4,5,7a-tetrahydro-2H-indol-6-yl] 2,2-dimethylpropanoate] | 100.0 | – | 8.2 | 0.0 | 0.0 | 100.0 | – | – | 3.6 | 2.0 | – | – | – |
| COc1ccc([C@@]23CCC(OC(=O)C4CC4)=C[C@@H]2N(C)CC3)cc1OC [Compound 312, [(3aS,7aS)-3a-(3,4-dimethoxyphenyl)-1-methyl-3,4,5,7a-tetrahydro-2H-indol-6-yl] cyclopropanecarboxylate] | 100.0 | 3.5 | 2.2 | 2.8 | 0.8 | 100.0 | 1.6 | – | – | – | 8.1 | 6.2 | – |
| C/C=C(\C)C(=O)OC1=C[C@@H]2N(C)CC[C@]2(c2ccc(OC)c(OC)c2)CC1 [Compound 313, [(3aS,7aS)-3a-(3,4-dimethoxyphenyl)-1-methyl-3,4,5,7a-tetrahydro-2H-indol-6-yl](E)-2-methylbut-2-enoate] | 100.0 | 2.1 | 0.1 | 0.0 | 0.0 | 100.0 | 0.7 | – | 2.4 | 0.4 | – | – | – |
| C=C(C)C(=O)OC1=C[C@@H]2N(C)CC[C@]2(c2ccc(OC)c(OC)c2)CC1 [Compound 315, [(3aS,7aS)-3a-(3,4-dimethoxyphenyl)-1-methyl-3,4,5,7a-tetrahydro-2H-indol-6-yl]-2-methylprop-2-enoate] | 100.0 | 5.3 | 1.3 | 2.0 | 1.9 | 100.0 | 2.4 | 0.5 | 0.2 | 0.0 | – | 2.3 | – |
| COc1ccc([C@@]23CCC(OC(=O)c4ccc(F)cc4)=C[C@@H]2N(C)CC3)cc1OC [Compound 353, (3aS,7aS)-3a-(3,4-dimethoxyphenyl)-1-methyl-2,3,3a,4,5,7a-hexahydro-1H-indol-6-yl 4-fluorobenzoate] | 100 | 0 | 0 | 0 | 0 | 100 | 0 | – | – | – | – | – | – |
| COc1ccc([C@@]23CCC(OC(=O)c4ccc(C#N)cc4)=C[C@@H]2N(C)CC3)cc1OC [Compound 354, (3aS,7aS)-3a-(3,4-dimethoxyphenyl)-1-methyl-2,3,3a,4,5,7a-hexahydro-1H-indol-6-yl 4-cyanobenzoate] | 100 | 5 | 5 | 4 | 0 | 100 | 7 | 42 | 13 | 1 | 93 | 72 | – |
| COc1ccc([C@@]23CCC(OC(=O)c4ccc(N(C)C)cc4)=C[C@@H]2N(C)CC3)cc1OC [Compound 355, [(3aS,7aS)-3a-(3,4-dimethoxyphenyl)-1-methyl-3,4,5,7a-tetrahydro-2H-indol-6-yl] 4-(dimethylamino)benzoate] | 100.0 | – | 9.9 | 0.5 | 0.0 | 100.0 | – | >99 | >99 | – | >99 | >99 | – |
| COc1ccc([C@@]23CCC(OC(=O)c4cccc(C(C)(C)C)c4)=C[C@@H]2N(C)CC3)cc1OC [Compound 375, (3aS,7aS)-3a-(3,4-dimethoxyphenyl)-1-methyl-2,3,3a,4,5,7a-hexahydro-1H-indol-6-yl 3-(tert-butyl)benzoate] | 100 | 11 | 0 | 0 | 0 | 100 | 2 | 97 | 57 | 26 | >99 | >99 | – |
| COc1ccc([C@@]23CCC(OC(=O)CC(C)(C)C)=C[C@@H]2N(C)CC3)cc1OC [Compound 431, (3aS,7aS)-3a-(3,4-dimethoxyphenyl)-1-methyl-2,3,3a,4,5,7a-hexahydro-1H-indol-6-yl 3,3-dimethylbutanoate] | – | – | – | – | – | – | – | – | – | – | – | – | Rat Plasma Prodrug (%) ([3]; 0 min): 100.0%; Rat Plasma Prodrug (%) ([3]; 10 min): 74.5%; Rat Plasma Prodrug (%) ([3]; 30 min): 45.7%; Rat Plasma Prodrug (%) ([3]; 60 min): 16.5%; Rat Plasma Prodrug (%) ([3]; 120 min): 2.3%; Rat Plasma Prodrug (%) ([3]; 240 min): 0.2%; Human Plasma Prodrug (%) ([4]; 0 min): 100.0%; Human Plasma Prodrug (%) ([4]; 10 min): 82.1%; Human Plasma Prodrug (%) ([4]; 30 min): 69.0%; Human Plasma Prodrug (%) ([4]; 60 min): 62.8%; Human Plasma Prodrug (%) ([4]; 120 min): 52.6%; Human Plasma Prodrug (%) ([4]; 240 min): 37.4% |
